Measured values reported in paper PMC2680211 (Bioorganic & medicinal chemistry, 2008).

Target: hKOPR (Homo sapiens, UniProt P41145)
Format: biochemical

hKOPR, sequence (P41145 whole entry): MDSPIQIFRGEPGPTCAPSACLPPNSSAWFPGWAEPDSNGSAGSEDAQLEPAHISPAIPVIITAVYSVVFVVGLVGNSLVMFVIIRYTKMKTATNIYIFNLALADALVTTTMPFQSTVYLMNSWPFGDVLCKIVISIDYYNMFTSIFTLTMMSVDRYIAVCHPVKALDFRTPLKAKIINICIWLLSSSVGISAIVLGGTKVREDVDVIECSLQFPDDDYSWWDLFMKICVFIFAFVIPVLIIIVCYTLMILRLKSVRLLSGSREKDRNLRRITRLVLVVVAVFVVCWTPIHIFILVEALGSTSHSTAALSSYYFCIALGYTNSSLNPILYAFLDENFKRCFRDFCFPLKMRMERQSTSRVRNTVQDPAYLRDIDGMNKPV

For `COC(=O)[C@@H]1C[C@H](OC(C)=O)C(=O)[C@H]2[C@@]1(C)CC[C@H]1C(=O)O[C@H](c3ccoc3Br)C[C@]21C` [Compound 2, 16-bromosalvinorin A], which “KOPR agonism in the [35S]GTPγS functional assay (in words)” value (from here on “KOPR agonism”) is on record?
The value was “highly potent KOPR agonist”.

For `COC(=O)[C@@H]1C[C@H](OC(C)=O)C(=O)[C@H]2[C@@]1(C)CC[C@H]1C(=O)O[C@@H](c3ccoc3)C[C@]21C` [Compound 6, 12-epi-Salvinorin A], which “KOPR agonism” value is on record?
Its value is “partial agonist effects”.

What about the “KOPR antagonism: effect on U50,488-induced [35S]GTPγS binding” value of the same molecule?
Its value is “partially blocked the effect of U50,488”.

And the “reduction of [35S]GTPγS binding induced by U50,488” value?
The value was “significantly reduced”.

Which “KOPR agonism” value does the source give for `COC(=O)[C@@H]1C[C@H](OC(C)=O)C(=O)[C@H]2[C@@]1(C)CC[C@H]1C(=O)O[C@H](C(=O)O)C[C@]21C` [Compound 7] here?
Its value is “weak agonist”.

For `COC(=O)[C@@H]1C[C@H](OC(C)=O)C(=O)[C@H]2[C@@]1(C)CC[C@H]1C(=O)O[C@H](COC(C)=O)C[C@]21C` [Compound 11], which “KOPR agonism” value is on record?
The value was “weak KOPR agonist”.
